{"source": "paper PMC7782499", "about": "“Progerinin, an optimized progerin-lamin A binding inhibitor, ameliorates premature senescence phenotypes of Hutchinson-Gilford progeria syndrome” (Communications Biology, 2021)", "key": {"[1]": {"test": "Plasma protein binding, rat", "type": "in vitro ADME", "method": "(§1) At pre-set time-points, blood concentration of JH4 was determined by LC-MS/MS analysis[22],[23]. Other chemicals were also tested using similar protocol. In vitro ADME studies (plasma protein binding, CYP inhibition, microsomal stability, plasma stability, and hERG inhibition) were performed by New Drug Development Center (Daegu, Korea) using standard protocols[24],[25]."}, "Lmna G609G/+ mouse [2]": {"test_system": "Lmna G609G/+ mouse", "test": "Grip strength test", "type": "in vivo", "conditions": "LMNA G609G/+ mice, 41-week-old, SLC-D011 for 6 weeks", "text": "(§2) Fig. 4 Oral administration of SLC-D011 suppresses premature aging features. A Gross morphology of SLC-D011-treated (D011) mice at 8 weeks old. Body size of treated mouse was apparently larger than that of the untreated control (Con) mouse. B Oral administration of SLC-D011 increases body weights of Lmna^G609G/G609G mice. Compared with untreated control group, body weight of treated mouse was increased by ~35%, *p < 0.05. C Oral administration of SLC-D011 extends the life span of Lmna^G609G/G609G mouse. SLC-D011 in monoolein-based solution was treated by oral gavage (50 mg/kg, daily) from 5 weeks old. […] E Grip test of Lmna^G609G/+ mice at 41-week-old was performed after administration of SLC-D011 for 6 weeks. The test was repeated 10 times for each mouse (n > 4), **p < 0.001. Data are presented as mean ± SD. […] H Anti-aging effects of single treatment of SLC-D011 or lonafarnib were measured in HGPS patients-derived cells (AG11513, AG03199, AG11498, and AG03198, Coriell Cell Repositories). […] No unit is printed with them; the x axis reads Age (weeks). / Panel C: Ave=16.8 / Max=18 are printed beside the dashed curve of the control (Con). […]\n(§3) For analysis of heart rate, mice were anesthetized with 2.5% isoflurane and monitored using LOGIQ E9 (GE Healthcare). […] Each estimate given corresponded to total reads measured ten times, excluding the minimum and the maximum from each group of animals."}, "HGPS cells": {"test_system": "HGPS cells", "test": "SA-β-gal staining senescence assay in HGPS cells", "type": "cell-based, human", "text": "Fig. S3. Chemical screening with JH4 derivatives (a total of 53 chemicals except JH010 and SLC -D011 were used). A. Summarized tables for effects of JH4 derivatives. ‘+’ means s t re ngt h of binding affinity or expression level after treatment of chemicals. Middle columns of tables show binding affinity between progerin and lamin A. Third columns of tables show level of progerin expression. […]\nsevere cytotoxicity (cell death or none). B , C, and D. Examples of screening based on pull-down assay. All chemicals were tested using GST pull-down assay. […]\ninhibition activity than JH4. E. Generation of J H4 derivatives. To prevent rapid digestion in vivo, side chain was replaced by amide bond (J H010) or ether bond (SLC-D011).\nH3K9me3 levels after treatment with J H010 and D011 in HGPS cells (n = 3 independent experiments; two- […]\nwith J H4, JH010, and SLC-D011 in HGPS cells (n = 3 independent experiments; two- tailed Student’s t- […]\nfibroblasts from normal person and patients with HGPS (n = 3 independent experiments; two- tailed Student’s t -test), **p < 0.001, *p< 0.05. I. Transcriptional levels of progerin are not affected by treatment with SLC-D011. Total RNA was extracted after treatment with SLC-D011 for 7 days. The PCR products correspond to wild- type prelamin A and progerin transcripts. […]"}, "Lmna G609G/+ mouse [3]": {"test_system": "Lmna G609G/+ mouse", "test": "Heart rate (electrocardiographic analysis)", "type": "in vivo", "conditions": "LMNA G609G/+ mice, SLC-D011 for 6 weeks", "text": "as §2, §3"}, "CYP3A4": {"molecular_target": "CYP3A4 (Homo sapiens, UniProt P08684)", "sequence (P08684 whole entry)": "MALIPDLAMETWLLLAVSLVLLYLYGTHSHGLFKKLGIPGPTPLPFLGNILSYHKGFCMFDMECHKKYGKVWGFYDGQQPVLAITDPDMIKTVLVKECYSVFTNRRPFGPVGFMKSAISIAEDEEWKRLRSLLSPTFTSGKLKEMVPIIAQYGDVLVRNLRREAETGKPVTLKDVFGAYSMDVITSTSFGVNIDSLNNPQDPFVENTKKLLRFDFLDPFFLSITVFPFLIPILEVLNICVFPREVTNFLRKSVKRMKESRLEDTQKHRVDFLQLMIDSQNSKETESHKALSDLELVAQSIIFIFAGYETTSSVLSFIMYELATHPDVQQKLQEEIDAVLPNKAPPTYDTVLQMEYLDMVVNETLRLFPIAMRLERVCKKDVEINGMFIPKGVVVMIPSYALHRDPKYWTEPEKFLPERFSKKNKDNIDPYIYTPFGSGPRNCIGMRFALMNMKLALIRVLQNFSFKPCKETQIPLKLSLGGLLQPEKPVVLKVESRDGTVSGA", "test": "CYP inhibition, CYP3A4", "type": "in vitro ADME", "method": "as §1"}}, "note": "Values joined by “and” are separate entries in the source; they are usually repeats but may differ in a detail not shown here. Equal entries are not always repeated.", "data": [{"smiles": "CC1(C)Oc2cc3oc(=O)ccc3cc2C[C@@H]1OC/C=C/c1ccccc1", "note": "[SLC-D011]", "values": [{"measurement": "fraction unbound", "setting": "[1]", "value": 0.002}, {"measurement": "Grip strength relative to LMNA +/+ (=1)", "setting": "Lmna G609G/+ mouse [2]", "value": 0.9456}, {"measurement": "Force (%)", "setting": "Lmna G609G/+ mouse [2]; LMNA +/+ = 100", "value": 94.5577, "unit": "%"}, {"measurement": "Cellular senescence (SA-β-gal staining)", "setting": "HGPS cells", "value": "could block cellular senescence"}, {"measurement": "Heart rate", "setting": "Lmna G609G/+ mouse [3]", "value": "462 bmp and 447 bmp and 432 bmp and 454 bmp"}, {"measurement": "CYP inhibition", "setting": "CYP3A4", "value": 92.5}]}]}
